The target in test [1] is T1, isolated kinase domain of the human FLT3 receptor (a.a. 571-993) (Homo sapiens, UniProt P36888).
T1 construct: human FLT3 receptor (a.a. 571-993)
T1 sequence (P36888 571-993): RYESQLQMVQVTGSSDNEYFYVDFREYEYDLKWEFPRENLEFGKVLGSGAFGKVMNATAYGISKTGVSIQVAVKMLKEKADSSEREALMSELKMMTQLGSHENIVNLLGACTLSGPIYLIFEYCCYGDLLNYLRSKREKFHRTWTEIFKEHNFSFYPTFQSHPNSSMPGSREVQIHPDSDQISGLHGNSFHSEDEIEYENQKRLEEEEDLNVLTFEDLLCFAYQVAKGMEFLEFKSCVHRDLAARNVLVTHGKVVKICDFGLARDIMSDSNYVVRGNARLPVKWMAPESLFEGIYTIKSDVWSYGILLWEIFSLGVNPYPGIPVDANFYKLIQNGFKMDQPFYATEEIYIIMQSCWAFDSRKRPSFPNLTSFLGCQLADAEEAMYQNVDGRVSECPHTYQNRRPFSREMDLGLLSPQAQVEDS
The test is described as follows: FLT3 fluorescence polarization kinase assay. The class given is biochemical. The conditions noted are these: 150 uM ATP; uncertainty ±10%.

The test system of test [2] is MV4-11 cells. Put plainly: Inhibition of MV4-11 cell proliferation (CellTiterGlo, 72 h). The class given is cell-based. The note with it: Homo sapiens; 72 h growth inhibition; uncertainty ±20%.

The results in this text go back to patent publication US20070004660A1, “Synergistic Modulation of Flt3 Kinase Using Alkylquinolines and Alkylquinazolines” (priority 2005, published 2007).

The structures appear in SMILES notation.

Usually IC50 stands for the midpoint of a concentration-inhibition curve. A high value points to lower potency. As for `O=C(Nc1ccc(N2CCOCC2)cc1)N1CCC(c2ncnc3cc(OCCN4CCOCC4)ccc23)CC1` [Example 96, 4-[7-(2-Morpholin-4-yl-ethoxy)-quinazolin-4-yl]-piperidine-1-carboxylic acid (4-morpholin-4-yl-phenyl)-amide], the IC50 worked out at 36 nM in test [1] and 235 nM in test [2].

With `COc1cc2ncnc(C3CCN(C(=O)Nc4ccc(-c5ccc(Cl)nc5)cc4)CC3)c2cc1OC` [Example 60, 4-(6,7-Dimethoxy-quinazolin-4-yl)-piperidine-1-carboxylic acid [4-(6-chloro-pyridin-3-yl)-phenyl]-amide], the concentration for half-maximal inhibition (IC50) in test [1] is 360 nM; in test [2] it was 1400 nM.

Consider `CN1CCC(COc2ccc3c(C4CCN(C(=O)Nc5ccc(N6CCOCC6)cc5)CC4)ncnc3c2)CC1` [Example 94, 4-[7-(1-Methyl-piperidin-4-ylmethoxy)-quinazolin-4-yl]-piperidine-1-carboxylic acid (4-morpholin-4-yl-phenyl)-amide], for which the 50% inhibitory concentration (IC50) in test [1] was 1 nM; in test [2], 60 nM.

Regarding `COc1cc2ncnc(C3CCN(C(=O)Nc4ccc(C5=CCNCC5)cc4)CC3)c2cc1OC` [Example 62, 4-(6,7-Dimethoxy-quinazolin-4-yl)-piperidine-1-carboxylic acid [4-(1,2,3,6-tetrahydro-pyridin-4-yl)-phenyl]-amide], the values for the IC50 in test [1] and in test [2] were over 10000 nM and 7500 nM, respectively.

In the case of `CC(C)Oc1ccc(NC(=O)N2CCC(c3ncnc4ccccc34)CC2)cc1` [Example 8, 4-Quinazolin-4-yl-piperidine-1-carboxylic acid (4-isopropoxy-phenyl)-amide], the results for the IC50 in test [1] and in test [2] were 200 nM and 533 nM, respectively.

Take `CC(C)Oc1ccc(NC(=O)N2CCC(c3ncnc4cc(OCCCOS(C)(=O)=O)ccc34)CC2)cc1` [Example 121, Methanesulfonic acid 3-{4-[1-(4-isopropoxy-phenylcarbamoyl)-piperidin-4-yl]-quinazolin-7-yloxy}-propyl ester]: the concentration for half-maximal inhibition (IC50) in test [1] turned out to be 3 nM; in test [2], 27 nM.

Consider `CC(C)Oc1ccc(NC(=O)N2CCC(c3ncnc4cc(OCCCN5CCCC5=O)ccc34)CC2)cc1` [Example 67, 4-{7-[3-(2-Oxo-pyrrolidin-1-yl)-propoxy]-quinazolin-4-yl}-piperidine-1-carboxylic acid (4-isopropoxy-phenyl)-amide], for which the results for the half-inhibitory concentration (IC50) in test [1] and in test [2] were 3 nM and 9 nM, respectively.

In the case of `O=C1CCCN1CCOc1ccc2c(C3CCN(C(=O)Nc4ccc(N5CCCC5)cc4)CC3)ncnc2c1` [Example 74, 4-{7-[2-(2-Oxo-pyrrolidin-1-yl)-ethoxy]-quinazolin-4-yl}-piperidine-1-carboxylic acid (4-pyrrolidin-1-yl-phenyl)-amide], the IC50 is 1 nM in test [1] and 40 nM in test [2].

For the compound `O=C(Nc1ccc(N2CCOCC2)cc1)N1CCC(c2ncnc3cc(OCCCO)ccc23)CC1` [Example 77, 4-[7-(3-Hydroxy-propoxy)-quinazolin-4-yl]-piperidine-1-carboxylic acid (4-morpholin-4-yl-phenyl)-amide], the IC50 in test [1] is 103 nM; in test [2] it was 139 nM.

As to `O=C(Nc1ccc(N2CCCC2)nc1)N1CCC(c2ncnc3cc(OCCN4CCOC4=O)ccc23)CC1` [Example 92, 4-{7-[2-(2-Oxo-oxazolidin-3-yl)-ethoxy]-quinazolin-4-yl}-piperidine-1-carboxylic acid (6-pyrrolidin-1-yl-pyridin-3-yl)-amide], the IC50 in test [1] came out at 0.2 nM; in test [2] it was 21 nM.

Consider `O=C1CCCN1CCOc1ccc2c(C3CCN(C(=O)Nc4ccc(N5CCOCC5)cc4)CC3)ncnc2c1` [Example 85, 4-{7-[2-(2-Oxo-pyrrolidin-1-yl)-ethoxy]-quinazolin-4-yl}-piperidine-1-carboxylic acid (4-morpholin-4-yl-phenyl)-amide], for which the IC50 in test [1] turned out to be 27 nM; in test [2], 58 nM.

For the compound `O=C(Nc1ccc(N2CCCC2)nc1)N1CCC(c2ncnc3cc(OCCN4CCOCC4)ccc23)CC1` [Example 95, 4-[7-(2-Morpholin-4-yl-ethoxy)-quinazolin-4-yl]-piperidine-1-carboxylic acid (6-pyrrolidin-1-yl-pyridin-3-yl)-amide], the IC50 stood at 8 nM in test [1] and 56 nM in test [2].

As for `O=C1CCCN1CCCOc1ccc2c(C3CCN(C(=O)Nc4ccc(N5CCCC5)nc4)CC3)ncnc2c1` [Example 89, 4-{7-[3-(2-Oxo-pyrrolidin-1-yl)-propoxy]-quinazolin-4-yl}-piperidine-1-carboxylic acid (6-pyrrolidin-1-yl-pyridin-3-yl)-amide], the half-inhibitory concentration (IC50) amounted to 2 nM in test [1] and 24 nM in test [2].

For `CCC(C)c1ccc(NC(=O)N2CCC(c3ncnc4cc(OC)c(OC)cc34)CC2)cc1` (centres unmarked) [Example 52, 4-(6,7-Dimethoxy-quinazolin-4-yl)-piperidine-1-carboxylic acid (4-sec-butyl-phenyl)-amide], the IC50 in test [1] came out at 19 nM; in test [2] it was 7 nM.

Consider `COc1cc2ncnc(C3CCN(C(=O)Nc4ccc(C5CCN(C(=O)OC(C)(C)C)CC5)cc4)CC3)c2cc1OC` [Example 63, 4-(4-{[4-(6,7-Dimethoxy-quinazolin-4-yl)-piperidine-1-carbonyl]-amino}-phenyl)-piperidine-1-carboxylic acid tert-butyl ester], for which the half-inhibitory concentration (IC50) in test [1] amounted to 2000 nM; in test [2], 4100 nM.

Take `COc1cc2ncnc(C3CCN(CC(=O)Nc4ccc(C(C)C)cc4)CC3)c2cc1OC` [Example 9, 2-[4-(6,7-Dimethoxy-quinazolin-4-yl)-piperidin-1-yl]-N-(4-isopropyl-phenyl)-acetamide]: the values for the concentration for half-maximal inhibition (IC50) in test [1] and in test [2] were 13 nM and 29 nM, respectively.

For the compound `CN1CCCN(CCCOc2ccc3c(C4CCN(C(=O)Nc5ccc(N6CCOCC6)cc5)CC4)ncnc3c2)CC1` [Example 125, 4-{7-[3-(4-Methyl-[1,4]diazepan-1-yl)-propoxy]-quinazolin-4-yl}-piperidine-1-carboxylic acid (4-morpholin-4-yl-phenyl)-amide], the IC50 in test [1] was determined as 6 nM; in test [2], 45 nM.

For `CN1CCN(CCCOc2ccc3c(C4CCN(C(=O)Nc5cnc(N6CCCC6)nc5)CC4)ncnc3c2)CC1` [Example 105, 4-{7-[3-(4-Methyl-piperazin-1-yl)-propoxy]-quinazolin-4-yl}-piperidine-1-carboxylic acid (2-pyrrolidin-1-yl-pyrimidin-5-yl)-amide], the IC50 in test [1] was determined as 64 nM; in test [2], 91 nM.

For the compound `COc1cc2ncnc(C3CCN(C(=O)Nc4ccc(-c5cncnc5)cc4)CC3)c2cc1OC` [Example 58, 4-(6,7-Dimethoxy-quinazolin-4-yl)-piperidine-1-carboxylic acid (4-pyrimidin-5-yl-phenyl)-amide], the IC50 in test [1] and in test [2] was 2000 nM in each case.

Turning to `CCN(CC)CC#Cc1ccc2ncnc(C3CCN(C(=O)Nc4ccc(OC(C)C)cc4)CC3)c2c1` [Example 13, 4-[6-(3-Diethylamino-prop-1-ynyl)-quinazolin-4-yl]-piperidine-1-carboxylic acid (4-isopropoxy-phenyl)-amide], the concentration for half-maximal inhibition (IC50) in test [1] was 72 nM; in test [2], 59 nM.

Regarding `CC(C)Oc1ccc(NC(=O)N2CCC(c3ncnc4cc(OCCCNS(C)(=O)=O)ccc34)CC2)cc1` [Example 65, 4-[7-(3-Methanesulfonylamino-propoxy)-quinazolin-4-yl]-piperidine-1-carboxylic acid (4-isopropoxy-phenyl)-amide], the IC50 in test [1] was found to be 19 nM; in test [2] it was 27 nM.

In the case of `CN(C)C(=O)N1CCN(CCCOc2ccc3c(C4CCN(C(=O)Nc5ccc(N6CCOCC6)cc5)CC4)ncnc3c2)CC1` [Example 120, 4-(3-{4-[1-(4-Morpholin-4-yl-phenylcarbamoyl)-piperidin-4-yl]-quinazolin-7-yloxy}-propyl)-piperazine-1-carboxylic acid dimethylamide], the half-maximal inhibitory concentration (IC50) in test [1] was 36 nM; in test [2], 220 nM.
